Data from publication PMC5623949, “Exploiting the 2-Amino-1,3,4-thiadiazole Scaffold To Inhibit Trypanosoma brucei Pteridine Reductase in Support of Early-Stage Drug Discovery” (ACS Omega, 2017).
Where two headings read alike, the source gives them in different places.

Experiments:
[1] = tested on: T. b. brucei Lister 427 bloodstream forms; experiment: In vitro activity against T. brucei (HTS SYBR Green I growth inhibition assay); format: cell-based, Trypanosoma brucei brucei; conditions: for % Antiparasitic Activity Tb brucei at 50uM: Table S1, compounds I-X; for inhibition at 50 µM / EC50: Trypanosoma brucei; for inhibition at 50 µM: standard deviation within ±10% of the value, read-out: % Inhibition T. brucei at 50 μM
mammalian cells = experiment: Toxicity against mammalian cells (Table S1); format: cell-based; conditions: read-out: IC50 vs mam.cells
[2] = tested on: T. b. brucei Lister 427 bloodstream forms; design: method as in PMID 27175479, PMID 27703008, PMID 18557814; conditions: no folate supplementation; read-out: reported EC50 T. brucei with no folate supplementation; cited from earlier work
[3] = tested on: T. b. brucei Lister 427 bloodstream forms; experiment: T. brucei resazurin assay for MTX potentiation and folic acid supplementation; format: cell-based, Trypanosoma brucei brucei; conditions: for EC50: Trypanosoma brucei
Method: T. b. brucei Lister 427 bloodstream forms were grown at 37 °C and 5% CO2 in a complete HMI-9 medium, supplemented with 10% FCS and 100 UI/mL of penicillin/streptomycin. The cultures were diluted until a cell density of 2 × 10^6/mL was reached. The efficacy of compounds against T. brucei bloodstream forms was evaluated using a modified resazurin-based assay previously described.[46] The compounds were prepared from a stock solution in 10 mM DMSO and diluted in HMI-9 (supplemented or not with 1 mM folic acid, Sigma-Aldrich) to 40 μM work solution (0.4% DMSO, with the DMSO limit in the assay being 0.4%). […] The 40 μM work solution was then used to perform serial dilutions (1:2) in a 96-well plate. Upon compound addition to the test plate, the mid-log bloodstream forms were added (100 μL) in complete HMI-9 medium (supplemented or not with 1 mM folic acid) at a final cell density of 1 × 10^4/mL in a final well volume of 200 μL with a maximum DMSO concentration of 0.2%. Following incubation for 72 h at 37 °C and 5% CO2, 20 μL of 0.5 mM resazurin solution was added, and the plates were incubated further for 4 h under the same conditions. Fluorescence was measured at 540 and 620 nm excitation and emission wavelengths, respectively, using a Synergy 2 multi-mode reader (BioTek). […] This approach requires the use of both compounds at their EC50 potency in the combination, which is impossible to be detected for compound 4m having no intrinsic antiparasitic activity as a single agent at the tested concentrations. Folic acid (1 mM) was chosen on the basis of the following experiments. The stock solution of 10 mM folic acid dissolved in NaOH solution was used to perform a dose–response curve with folic acid alone to evaluate the maximum amount we could use without compromising parasite growth due to pH modification of the media. […] The IC50 values reported are the averages of the results obtained in at least two independent experiments. Pentamidine was used as the reference drug and internal control in all assays.

in vitro [4] = experiment: in vitro; design: cytotoxicity, per cent cell growth of A549 cells; conditions: human, a549 cells; read-out: % cell growth A549 at 10uM
CYP3A4 = CYP3A4 (Homo sapiens, UniProt P08684); experiment: in vitro; design: cytochrome P450 isoform inhibition liability assay
CYP1A2 = molecular target: T1, CYP1A2 (Homo sapiens, UniProt P05177); experiment: in vitro; design: cytochrome P450 isoform inhibition liability assay
T1 sequence (P05177 1-516): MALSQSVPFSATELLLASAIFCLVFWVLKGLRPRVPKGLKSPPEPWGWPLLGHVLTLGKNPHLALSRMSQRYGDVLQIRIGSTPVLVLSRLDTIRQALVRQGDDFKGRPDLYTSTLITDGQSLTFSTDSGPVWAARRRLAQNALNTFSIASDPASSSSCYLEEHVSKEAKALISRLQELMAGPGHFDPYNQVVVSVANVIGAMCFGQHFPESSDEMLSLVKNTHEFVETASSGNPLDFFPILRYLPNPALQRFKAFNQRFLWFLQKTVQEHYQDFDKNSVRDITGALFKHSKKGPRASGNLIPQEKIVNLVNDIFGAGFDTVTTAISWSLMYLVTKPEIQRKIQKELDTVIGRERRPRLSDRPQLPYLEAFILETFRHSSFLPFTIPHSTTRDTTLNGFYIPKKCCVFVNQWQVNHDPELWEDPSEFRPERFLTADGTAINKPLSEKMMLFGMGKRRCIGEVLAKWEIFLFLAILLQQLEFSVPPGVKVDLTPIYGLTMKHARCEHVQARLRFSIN

CYP2D6 = CYP2D6 (Homo sapiens, UniProt P10635); experiment: in vitro; design: cytochrome P450 isoform inhibition liability assay
CYP2C9 = CYP2C9 (Homo sapiens, UniProt P11712); experiment: in vitro; design: cytochrome P450 isoform inhibition liability assay
CYP2C19 = CYP2C19 (Homo sapiens, UniProt P33261); experiment: in vitro; design: cytochrome P450 isoform inhibition liability assay
hERG = molecular target: T2, hERG (Homo sapiens, UniProt Q12809); design: hERG inhibition liability assay
T2 construct: gene KCNH2

786-O = experiment: cells; design: mitochondrial toxicity in 786-O renal carcinoma cells; conditions: Homo sapiens, 786-0; mitochondrial toxicity
in vitro [5] = experiment: in vitro; design: cytotoxicity, per cent cell growth of WI-38 fibroblasts; conditions: human, wi-38 cells; read-out: % cell growth W1-38 at 10uM
TbPTR1 [6] = molecular target: T3, TbPTR1 (Trypanosoma brucei brucei, UniProt O76290); experiment: biochemical; conditions: for inhibition at 50 µM: 50 μM compound, read-out: % Inhibition TbPTR1 at 50 μM; for IC50: dose-response 0.001-100 μM
T3 construct: made in house
T3 sequence (O76290 1-268): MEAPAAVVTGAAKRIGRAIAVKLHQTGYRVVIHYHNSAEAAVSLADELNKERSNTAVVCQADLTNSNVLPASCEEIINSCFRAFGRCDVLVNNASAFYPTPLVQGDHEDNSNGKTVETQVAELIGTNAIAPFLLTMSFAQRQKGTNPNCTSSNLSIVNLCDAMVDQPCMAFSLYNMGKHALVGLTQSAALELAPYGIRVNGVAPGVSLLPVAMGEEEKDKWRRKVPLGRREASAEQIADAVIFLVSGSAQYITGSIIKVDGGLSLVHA

TbPTR1 [7] = molecular target: T3, TbPTR1; experiment: TbPTR1 direct enzyme inhibition assay for compounds I-X (Table S1); format: biochemical; conditions: for inhibition at 50 µM: 10 min, pH 6, 50 µM compound; for Ki: competitive inhibition mechanism assumed
Method: (b) PTR1 Enzyme inhibition. Compounds ICX were tested following the direct assay. The samples were incubated for
10 minutes at 30 °C, in buffer containing 50 mM Na citrate pH 3.7, TbPTR1, BH2 20 μM. (Dawson et al. Mol.
Microbiol. 2006, 61 (6), 1457–1468). Reaction start with NADPH. Compound concentrations depend on solubility and
ranged between 10C300 μM. Ki was calculated assuming a competitive inhibition mechanism.

Sequence of CYP2C9 (P11712 whole entry, canonical isoform): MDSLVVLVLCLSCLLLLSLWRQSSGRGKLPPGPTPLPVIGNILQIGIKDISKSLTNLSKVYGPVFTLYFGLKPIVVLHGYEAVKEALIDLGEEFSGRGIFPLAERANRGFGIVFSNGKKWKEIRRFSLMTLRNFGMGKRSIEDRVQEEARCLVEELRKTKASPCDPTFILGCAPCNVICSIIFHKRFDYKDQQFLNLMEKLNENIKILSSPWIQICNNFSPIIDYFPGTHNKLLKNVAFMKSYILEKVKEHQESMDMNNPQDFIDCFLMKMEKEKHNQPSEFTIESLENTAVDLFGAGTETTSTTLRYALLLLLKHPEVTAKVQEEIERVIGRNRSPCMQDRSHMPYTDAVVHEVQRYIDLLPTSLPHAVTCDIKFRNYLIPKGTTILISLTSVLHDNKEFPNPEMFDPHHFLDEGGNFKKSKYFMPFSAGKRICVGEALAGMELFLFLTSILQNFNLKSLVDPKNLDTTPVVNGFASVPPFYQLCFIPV
T2 sequence (Q12809 whole entry): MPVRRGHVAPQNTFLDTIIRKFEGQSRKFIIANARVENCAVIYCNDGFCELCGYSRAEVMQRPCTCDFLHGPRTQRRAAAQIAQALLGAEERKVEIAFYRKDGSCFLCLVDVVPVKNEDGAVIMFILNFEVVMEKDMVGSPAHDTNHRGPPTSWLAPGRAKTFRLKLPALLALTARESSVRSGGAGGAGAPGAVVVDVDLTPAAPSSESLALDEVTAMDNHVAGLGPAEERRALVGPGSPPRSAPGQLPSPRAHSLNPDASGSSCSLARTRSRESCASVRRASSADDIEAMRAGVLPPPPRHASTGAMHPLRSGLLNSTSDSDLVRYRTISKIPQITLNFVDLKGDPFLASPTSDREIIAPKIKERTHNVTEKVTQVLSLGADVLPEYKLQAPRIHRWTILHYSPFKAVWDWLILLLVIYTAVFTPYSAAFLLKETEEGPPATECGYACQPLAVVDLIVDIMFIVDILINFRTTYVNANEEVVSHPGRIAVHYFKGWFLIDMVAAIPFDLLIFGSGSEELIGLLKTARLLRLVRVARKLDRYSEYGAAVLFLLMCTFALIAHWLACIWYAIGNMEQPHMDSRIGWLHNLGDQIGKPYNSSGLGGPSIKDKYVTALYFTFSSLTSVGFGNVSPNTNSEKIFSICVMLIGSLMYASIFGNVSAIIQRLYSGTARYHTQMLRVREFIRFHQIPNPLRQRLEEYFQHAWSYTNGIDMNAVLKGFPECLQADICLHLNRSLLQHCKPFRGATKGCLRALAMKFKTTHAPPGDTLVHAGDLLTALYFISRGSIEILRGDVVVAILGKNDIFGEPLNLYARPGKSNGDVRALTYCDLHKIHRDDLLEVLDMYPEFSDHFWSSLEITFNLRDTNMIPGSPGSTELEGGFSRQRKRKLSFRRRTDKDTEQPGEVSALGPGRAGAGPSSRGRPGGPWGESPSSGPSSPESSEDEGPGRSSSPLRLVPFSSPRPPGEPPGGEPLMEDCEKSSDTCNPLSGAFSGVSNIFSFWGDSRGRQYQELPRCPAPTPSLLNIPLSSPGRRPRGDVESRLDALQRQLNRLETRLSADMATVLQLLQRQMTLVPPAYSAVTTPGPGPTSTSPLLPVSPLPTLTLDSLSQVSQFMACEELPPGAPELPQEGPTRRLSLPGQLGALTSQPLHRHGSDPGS
Sequence of CYP2C19 (P33261 whole entry, canonical isoform): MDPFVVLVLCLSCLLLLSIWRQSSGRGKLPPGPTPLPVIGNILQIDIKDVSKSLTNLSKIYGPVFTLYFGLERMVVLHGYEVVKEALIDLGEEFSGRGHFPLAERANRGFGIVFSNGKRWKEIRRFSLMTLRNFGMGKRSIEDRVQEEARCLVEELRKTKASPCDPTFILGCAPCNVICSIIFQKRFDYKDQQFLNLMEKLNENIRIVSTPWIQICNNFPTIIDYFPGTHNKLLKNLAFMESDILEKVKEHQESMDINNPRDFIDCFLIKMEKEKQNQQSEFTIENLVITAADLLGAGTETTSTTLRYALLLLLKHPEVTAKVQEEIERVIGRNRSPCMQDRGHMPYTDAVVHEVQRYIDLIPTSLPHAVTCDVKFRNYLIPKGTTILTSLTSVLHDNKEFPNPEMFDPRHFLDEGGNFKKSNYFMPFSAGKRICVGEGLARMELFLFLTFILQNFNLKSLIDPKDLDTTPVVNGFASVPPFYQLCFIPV
Sequence of CYP2D6 (P10635 whole entry, canonical isoform): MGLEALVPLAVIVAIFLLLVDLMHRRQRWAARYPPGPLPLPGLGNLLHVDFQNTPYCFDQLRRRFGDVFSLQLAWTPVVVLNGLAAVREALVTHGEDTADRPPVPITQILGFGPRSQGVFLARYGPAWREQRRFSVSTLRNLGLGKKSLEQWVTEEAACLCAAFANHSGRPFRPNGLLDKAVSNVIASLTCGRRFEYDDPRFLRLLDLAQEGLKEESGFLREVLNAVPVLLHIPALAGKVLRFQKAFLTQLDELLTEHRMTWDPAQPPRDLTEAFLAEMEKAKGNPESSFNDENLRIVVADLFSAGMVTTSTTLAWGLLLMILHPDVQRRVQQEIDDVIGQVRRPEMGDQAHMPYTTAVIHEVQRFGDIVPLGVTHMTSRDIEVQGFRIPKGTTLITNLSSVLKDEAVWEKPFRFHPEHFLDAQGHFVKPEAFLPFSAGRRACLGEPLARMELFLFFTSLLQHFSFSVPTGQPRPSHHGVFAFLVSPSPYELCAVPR
Sequence of CYP3A4 (P08684 whole entry, canonical isoform): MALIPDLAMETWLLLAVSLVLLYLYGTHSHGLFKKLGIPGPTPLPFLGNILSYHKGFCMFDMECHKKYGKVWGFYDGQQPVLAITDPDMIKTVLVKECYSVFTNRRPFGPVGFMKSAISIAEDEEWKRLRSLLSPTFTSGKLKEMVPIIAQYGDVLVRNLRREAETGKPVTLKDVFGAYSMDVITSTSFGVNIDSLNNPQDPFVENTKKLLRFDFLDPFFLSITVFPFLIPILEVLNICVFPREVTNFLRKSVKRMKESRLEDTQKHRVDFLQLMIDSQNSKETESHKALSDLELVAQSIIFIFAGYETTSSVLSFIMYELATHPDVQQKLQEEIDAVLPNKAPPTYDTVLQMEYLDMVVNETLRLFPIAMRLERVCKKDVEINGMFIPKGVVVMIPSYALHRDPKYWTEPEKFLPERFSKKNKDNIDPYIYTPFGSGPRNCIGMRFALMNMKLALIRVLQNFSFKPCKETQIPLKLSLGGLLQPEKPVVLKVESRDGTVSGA

Nc1nnc(CCCl)s1 [I]
% Antiparasitic Activity Tb brucei at 50uM [1]: 90% | IC50 (mammalian cells): 4.2 ± 0.4 µM

CN(Cc1cnc2nc(N)nc(N)c2n1)c1ccc(C(=O)N[C@@H](CCC(=O)O)C(=O)O)cc1 [MTX, methotrexate, reference compound]
EC50 [2]: 0.012 µM | effect of 1 mM folic acid on T. b. brucei growth inhibition ([3]; 1 mM folic acid, MTX alone or equimolar 4m + MTX): reduce the antiparasitic activity | EC50 ([3]; media supplemented with 9 μM folic acid, read-out: EC50 T. brucei, single agent): 35 ± 3 µM

Nc1nnc(NCc2cccs2)s1 [4c]
inhibition at 50 µM [1]: < 0% | viability at 10 µM (in vitro [4]): 142 ± 13.8% | inhibition at 10 µM (CYP3A4): -2.6 ± 4.5% | inhibition at 10 µM (CYP1A2): -3.2 ± 2.9% | inhibition at 10 µM (CYP2D6): 27.4 ± 5.7% | inhibition at 10 µM (CYP2C9): -7.7 ± 4.7% | inhibition at 10 µM (CYP2C19): -13.9 ± 18% | inhibition at 10 µM (hERG): 87.3 ± 5.7% | inhibition at 10 µM (786-O): 4.8 ± 2.9% | viability at 10 µM (in vitro [5]): 96.3 ± 7.6% | inhibition at 50 µM (TbPTR1 [6]): 50.6 ± 2.6% | IC50 (TbPTR1 [6]): 112 µM | antiparasitic effect as single agent ([3]; compound alone, 4m at 50 μM): low T. brucei cell inhibitory activity

N=C(N)c1ccc(OCCCCCOc2ccc(C(=N)N)cc2)cc1 [Pentamidine, reference compound]
EC50 ([1]; read-out: EC50 T. b. brucei (reference compound, SYBR Green assay)): 0.0038 ± 0.00048 µM | EC50 ([3]; read-out: average EC50 T. brucei (reference drug, resazurin assay)): 0.00228 ± 0.00118 µM

Nc1nnc(CCC(=O)c2cccs2)s1 [3k]
inhibition at 50 µM [1]: 60.7% | viability at 10 µM (in vitro [4]): 131 ± 2.8% | inhibition at 10 µM (CYP3A4): 10.3 ± 7.8% | inhibition at 10 µM (CYP1A2): 4.9 ± 1.4% | inhibition at 10 µM (CYP2D6): -20.6 ± 3.1% | inhibition at 10 µM (CYP2C9): -10.5 ± 2.1% | inhibition at 10 µM (CYP2C19): -3.4 ± 15.5% | inhibition at 10 µM (hERG): 0.1 ± 6.4% | IC50 (mammalian cells): > 50 µM | inhibition at 10 µM (786-O): -5.2 ± 3.9% | inhibition at 50 µM (TbPTR1 [7]): 18% | Ki (TbPTR1 [7]): 48 µM | viability at 10 µM (in vitro [5]): 92 ± 9.7% | inhibition at 50 µM (TbPTR1 [6]): 26 ± 0.7% | IC50 (TbPTR1 [6]): > 70 µM

Nc1nnc(-c2ccc3[nH]nnc3c2)s1 [IV]
% Antiparasitic Activity Tb brucei at 50uM [1]: 67% | EC50 ([1]; Table S1, read-out: EC50 T. b. brucei (compounds I-IV)): 170 µM | IC50 (mammalian cells): 51.5 µM | inhibition at 50 µM (TbPTR1 [7]): 10% | Ki (TbPTR1 [7]): 88 µM

Nc1nnc(-c2cnccc2N)s1 [III]
EC50 T. b. brucei (compounds I-IV) ([1]; Table S1): not detectable | IC50 (mammalian cells): > 50 µM | inhibition at 50 µM (TbPTR1 [7]): 15% | Ki (TbPTR1 [7]): 53 µM
